Measurements as given in patent US20220175761A1, “BI-LIGAND DRUG CONJUGATE AND USE THEREOF” (COHERENT BIOPHARMA (SUZHOU), LIMITED, priority 2019, published 2022).
Numbered stars: 1 amine (or outer) side, 2 acyl side, 3 side chain; on linkers, the order of the positions; unused ones are H or OH. Bridge positions count the residues as written; N and C are the ends. Square brackets hold non-standard residues; d marks the D form. Peptide text beside a SMILES is read from it. I, II: the chains in the order shown. * marks the point of attachment. ξ: configuration not given here. X6 = CCc1c2c(nc3ccc(O)cc13)-c1cc3c(c(=O)n1C2)COC(=O)[C@@]3(CC)OC(=O)OCc1ccc(NC(=O)COCC(=O)NCCOCCOCCOCCOCCOCCn2nncc2CNC(=O)CCCCCN2C(=O)CC(*)C2=O)cc1; EuK = O=C(O)CC[C@H](NC(=O)N[C@@H](CCCCN*)C(=O)O)C(=O)O; Pteroyl = Nc1nc2ncc(CNc3ccc(C(=O)*)cc3)nc2c(=O)[nH]1; Dolaproine = CO[C@@H]([C@@H]1CCCN1)[C@@H](C)C(=O)O; Dil = CC[C@H](C)[C@H](NC)[C@@H](CC(=O)O)OC; X3 = O=C1CC([*:2])C(=O)N1CCCCCC(=O)[*:1]; γGlu = O=C(O)[C@H](CCC(=O)[*:2])N[*:1]; PABC = O=C(OCc1ccc(N[*:1])cc1)[*:2]; X1 = C[C@@H](N*)[C@@H](O)c1ccccc1; X2 = O=C(Cc1ccc(CN[*:1])cc1)[*:2]; NMeV = CN[C@H](C(=O)O)C(C)C; ξCit = NC(=O)NCCCC(N)C(=O)O; CO = O=C([*:1])[*:2]; ξV = CC(C)C(N)C(=O)O; ξC = NC(CS)C(=O)O

Tests used:
[1] = test system: KB, LNCaP, T-47D, RT4 and NCI-H460 tumor cell lines; assay: Inhibition of tumor cell expansion, CCK8 (CB-10S); assay type: cell-based, human
Description: Cell lines: KB human oral epidermoid carcinoma cells, NCI-H460 human lung cancer cells, RT4 human bladder cancer cells, T-47D human breast cancer cells and LNcap human prostate cancer cells
The cells were prepared in advance, digested with trypsin, collected and counted; with a complete cell culture medium, KB cells were diluted to 3.5×10^4 cells/ml, LNCaP cells were diluted to 8.0×10^4 cells/ml, T-47D cells were diluted to 1.2×10^4 cells/ml, NCI-H460 cells were diluted to 2.5×10^4 cells/ml, and RT4 cells were diluted to 1.2×10^4 cells/ml; to each well of 96-well plates, 100 μl of the diluted cell solution was added; and negative control and blank control wells were set on each plate. The 96-well plates added with the cells were placed in an incubator at 37° C., 5% CO2 for culturing overnight.
The samples were diluted with a culture medium to desired concentrations (see Table 12). […]
(§1) To each well, 15 μl (10% of the liquid volume in a well) of a color developing solution from CCK-8 was added; the plates were incubated at 37° C. for an appropriate time (try to keep the OD value in the range of 1.0-2.0); the covers of the 96-well plates were removed, and the plates were read at 450 nm on a microplate reader (Molecular Devices Spectra MAX Plus). […]

[2] = test system: LNCaP (human prostate cancer cells); assay: Inhibition of cell line proliferation, CCK8; assay type: cell-based; details: for IC50 ratio (MMAE/conjugate) / IC50: LNCaP; for IC50: 68-72 hours, CCK8
Text: (§2) Since different cells have different sensitivity to a cell proliferation inhibitory toxicity of the payload in a ligand conjugate, the quantitative analysis may be interfered occasionally. A series of cell lines with known expression levels of receptors of different ligands were selected and tested for the response to inhibitory effects of the cell proliferation of a ligand conjugate and a single payload. The IC50 ratio of a single payload to that of a ligand conjugate in same cell line were taken to remove such interference.
Experimental operations: LNCaP and 22RV1 cells were prepared in advance, counted, and plated in 96-well cell culture plates at a cell density of 4×10^4 cells/ml and 2.0×10^4 cells/ml, respectively (100 μl/well); negative control and blank control wells were set on each plate. After adherent cell culture overnight, the diluted samples to be tested were added at 50 μl/well. The plates were placed in an incubator at 37° C., 5% CO2 and cultured for 68-72 hours. To each well, 15 μl (10% of the liquid volume in a well) of a color developing solution from CCK8 was added; and the plates were incubated at 37° C. for 45-70 minutes and each plate was read at 450 nm on a microplate reader. The data was edited using SoftMax Pro and a 4-P fitting curve was plotted. […]

[3] = test system: 22RV1 (human prostate cancer cells); assay: Inhibition of cell line proliferation, CCK8; assay type: cell-based; details: for IC50 ratio (MMAE/conjugate): 22RV1; for IC50: 22RV1, 68-72 hours, CCK8
Text: as §2
Experimental operations: LNCaP and 22RV1 cells were prepared in advance, counted, and plated in 96-well cell culture plates at a cell density of 4×10^4 cells/ml and 2.0×10^4 cells/ml, respectively (100 μl/well); negative control and blank control wells were set on each plate. After adherent cell culture overnight, the diluted samples to be tested were added at 50 μl/well. The plates were placed in an incubator at 37° C., 5% CO2 and cultured for 68-72 hours. To each well, 15 μl (10% of the liquid volume in a well) of a color developing solution from CCK8 was added; and the plates were incubated at 37° C. for 45-70 minutes and each plate was read at 450 nm on a microplate reader. The data was edited using SoftMax Pro and a 4-P fitting curve was plotted.

FOLR1 = target: T1, FOLR1 (Homo sapiens, UniProt P15328); assay: BIAcore T200 binding affinity to FOLR1 (CM5 chip conjugated with FOLR1)
T1 construct: purchased R&D System 5646-FR
Text: Buffer: HBS-EP+ buffer 10× (GE, Cat #: BR100669), diluted 10 folds with deionized water before use.
In the experiment, CM5 chip was conjugated with ligand FOLR1 (R&D System, Cat #: 5646-FR).

FOLH1 = FOLH1 (Homo sapiens, UniProt Q04609); assay: BIAcore T200: binding of FOLH1 to compound-FOLR1 complex; set-up: purchased Sino Biologicals (FOLH1); R&D System (FOLR1) 15877-H07H (FOLH1); 5646-FR (FOLR1)
Text: CM5 chip was conjugated with a ligand: FOLR1 (R&D System, Cat #: 5646-FR)
Analyte: CB-20BK, FA-MMAE and FOLH1 (Sino Biologicals, Cat #: 15877-H07H)
According to BIAcore T200 (GE) operating manual, FOLR1 was conjugated to the CM5 chip; CB-20BK or FA-MMAE was loaded first, and then FOLH1 was loaded; and the binding of FOLH1 to the CB-20BK-FOLR1 complex was detected.

[4] = test system: KB, T-47D, NCI-H460, CALU-3, HuH-7, and LNCaP tumor cell lines; assay: Inhibition of tumor cell expansion, CCK8 (CB-60SK); assay type: cell-based, human
Description: (§3) Cell lines: KB human oral epidermoid carcinoma cells, T-47D human breast cancer cells, NCI-H460 human lung cancer cells, CALU-3 human lung adenocarcinoma cells, HuH-7 human liver cancer cells and LNCaP human prostate cancer cells
(§4) The cells were prepared in advance, digested with trypsin, collected and counted; with a complete cell culture medium, KB cells were diluted to 2.5×10^4 cells/ml, T-47D cells were diluted to 1.3×10^4 cells/ml, NCI-H460 cells were diluted to 3.5×10^4 cells/ml, CALU-3 cells were diluted to 4.0×10^4 cells/ml, HuH-7 cells were diluted to 3.0×10^4 cells/ml, and LNCaP cells were diluted to 8.0×10^4 cells/ml; 100 μl of the diluted cell solution was added to each well; and negative control and blank control wells were set on each plate. The 96-well plates added with the cells were placed in an incubator at 37° C., 5% CO2 for culturing overnight.
The samples were diluted with a culture medium to desired concentrations (see Table 14). […]
as §1

[5] = test system: KB, T-47D, NCI-H460, CALU-3, HuH-7, and LNCaP tumor cell lines; assay: Inhibition of tumor cell expansion, CCK8 (CB-60S); assay type: cell-based, human
Description: as §3
as §4, with “2.0×10^4” for “2.5×10^4”, “1.5×10^4” for “1.3×10^4”, “2.0×10^4” for “3.5×10^4”, “3.0×10^4” for “4.0×10^4”, “4.0×10^4” for “3.0×10^4”, “well of 96-well plates;” for “well;”
The samples were diluted with a culture medium to desired concentrations (see Table 13). […]
as §1

T1 sequence (P15328 25-233 limits assumed): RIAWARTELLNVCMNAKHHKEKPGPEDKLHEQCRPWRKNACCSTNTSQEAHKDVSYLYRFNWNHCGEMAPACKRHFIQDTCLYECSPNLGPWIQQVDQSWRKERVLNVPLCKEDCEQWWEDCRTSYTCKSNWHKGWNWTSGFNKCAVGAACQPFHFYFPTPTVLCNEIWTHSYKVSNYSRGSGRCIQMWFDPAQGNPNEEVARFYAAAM
Sequence of FOLH1 (Q04609 44-750 limits assumed): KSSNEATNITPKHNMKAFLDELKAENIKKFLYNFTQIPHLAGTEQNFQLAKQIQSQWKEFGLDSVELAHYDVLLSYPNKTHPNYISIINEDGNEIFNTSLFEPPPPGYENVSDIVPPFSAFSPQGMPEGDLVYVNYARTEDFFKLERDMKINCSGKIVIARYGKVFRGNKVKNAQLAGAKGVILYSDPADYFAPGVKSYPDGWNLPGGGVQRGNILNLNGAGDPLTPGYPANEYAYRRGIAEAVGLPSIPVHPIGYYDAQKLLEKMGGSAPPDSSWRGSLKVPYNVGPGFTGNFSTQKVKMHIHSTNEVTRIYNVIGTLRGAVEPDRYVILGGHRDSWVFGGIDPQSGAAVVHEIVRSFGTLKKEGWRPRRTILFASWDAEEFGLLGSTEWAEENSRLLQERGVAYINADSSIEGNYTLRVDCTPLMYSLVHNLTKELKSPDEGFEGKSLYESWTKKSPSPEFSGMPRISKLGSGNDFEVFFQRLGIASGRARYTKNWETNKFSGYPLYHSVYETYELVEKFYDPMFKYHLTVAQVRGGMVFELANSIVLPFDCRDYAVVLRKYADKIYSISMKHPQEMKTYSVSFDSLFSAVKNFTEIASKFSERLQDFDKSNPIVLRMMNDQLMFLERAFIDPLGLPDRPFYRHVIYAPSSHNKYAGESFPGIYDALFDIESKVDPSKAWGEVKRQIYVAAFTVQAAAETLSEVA
Sequence of FOLH1 (P15328 25-233 partner limits assumed): as the sequence (P15328 25-233 limits assumed) above

CCc1c2c(nc3ccc(O)cc13)-c1cc3c(c(=O)n1C2)COC(=O)[C@@]3(CC)OC(=O)OCc1ccc(NC(=O)COCC(=O)NCCOCCOCCOCCOCCOCCn2nncc2CNC(=O)CCCCCN2C(=O)CC(SC[C@H](NC(=O)CC[C@H](NC(=O)c3ccc(NCc4cnc5[nH]c(N)nc(=O)c5n4)cc3)C(=O)O)C(=O)N[C@@H](CCCCN)C(=O)N[C@@H](CCC(=O)O)C(=O)N[C@@H](Cc3ccccc3)C(=O)N[C@@H](CC(C)C)C(=O)N[C@@H](Cc3cnc[nH]3)C(=O)N3CCC[C@H]3C(=O)N[C@@H](CO)C(=O)N[C@@H](CCCCN)C(=O)NC(C(=O)N[C@@H](CC(=O)O)C(=O)N[C@@H](CC(C)C)C(=O)N3CCC[C@H]3C(=O)N[C@@H](CCCNC(=N)N)C(=O)O)C(C)C)C2=O)cc1 (some centres unmarked) [CB-10S] ({Pteroyl-γGlu}-C(X6)KEFLHPSK[ξV]DLPR-OH)
inhibitory effect on growth and expansion of tumor cell lines ([1]; 72 hours, CCK-8): has an inhibitory effect
IC50 compared between cell lines ([1]; KB, LNcap, T-47D and RT4 versus NCI-H460): significantly lower

CC[C@@]1(O)C(=O)OCc2c1cc1n(c2=O)Cc2c-1nc1cc(F)c(C)c3c1c2[C@@H](NC(=O)COCNC(=O)CNC(=O)[C@H](Cc1ccccc1)NC(=O)CNC(=O)CNC(=O)CCCCCN1C(=O)CC(SC[C@H](NC(=O)CC[C@H](NC(=O)c2ccc(NCc4cnc5[nH]c(N)nc(=O)c5n4)cc2)C(=O)O)C(=O)N[C@@H](CCCCN)C(N)=O)C1=O)CC3 (some centres unmarked) [FA-MMAE, reference compound]
IC50 ratio (MMAE/conjugate) [2]: 0.010
IC50 ratio in LNCaP relative to IC50 ratio in 22RV1 (times higher / factor) ([2]; LNCaP versus 22RV1): 1.5
IC50 [2]: 264 nM
IC50 ratio (MMAE/conjugate) [3]: 0.006
IC50 [3]: 1010 nM
kd (FOLR1; FOLR1 on CM5 chip, N/D = no specific binding was detected): 0.000115 s⁻¹
kon (FOLR1; read-out: ka): 1.79e+06 M⁻¹ s⁻¹
Binding of compound-FOLR1 complex to FOLH1 solution (FOLH1; FOLH1 concentration 0.0625 μM): −1 RU
Binding of compound-FOLR1 complex to FOLH1 solution (FOLH1; FOLH1 concentration 0.125 μM): 4.2 RU
Binding of compound-FOLR1 complex to FOLH1 solution (FOLH1; FOLH1 concentration 0.25 μM): 8.4 RU
Binding of compound-FOLR1 complex to FOLH1 solution (FOLH1; FOLH1 concentration 0.5 μM): 9.8 RU
amount of FOLH1 bound to compound-FOLR1 complex (in words) (FOLH1; FOLH1 solution at a high concentration): tends to saturate at a high concentration

CC[C@H](C)[C@@H]([C@@H](CC(=O)N1CCC[C@H]1[C@H](OC)[C@@H](C)C(=O)N[C@H](C)[C@@H](O)c1ccccc1)OC)N(C)C(=O)[C@@H](NC(=O)[C@H](C(C)C)N(C)C(=O)OCc1ccc(NC(=O)C(CCCNC(N)=O)NC(=O)[C@@H](NC(=O)CCCCCN2C(=O)CC(SCC(NC(=O)[C@H](CCCCN)NC(=O)[C@H](CC(=O)O)NC(=O)[C@H](CC(=O)O)NC(=O)Cc3ccc(CNC(=O)NCCCC[C@H](NC(=O)N[C@@H](CCC(=O)O)C(=O)O)C(=O)O)cc3)C(N)=O)C2=O)C(C)C)cc1)C(C)C (some centres unmarked) [CB-20AK, reference compound] (I: V[ξCit][PABC][NMeV]V[Dil][Dolaproine]-X1 / II: {EuK-CO}-[X2]DDK[ξC]-NH2; linker I:N-II:5 via X3)
IC50 ratio (MMAE/conjugate) [2]: 0.025
IC50 [2]: 102 nM
IC50 ratio (MMAE/conjugate) [3]: 0.006
IC50 [3]: 1050 nM
specific binding to FOLR1 (in words) (FOLR1; BIAcore T200): has not been detected to specifically bind to FOLR1

CCc1c2c(nc3ccc(O)cc13)-c1cc3c(c(=O)n1C2)COC(=O)[C@@]3(CC)OC(=O)OCc1ccc(NC(=O)[C@H](CCCNC(N)=O)NC(=O)COCC(=O)NCCOCCOCCOCCOCCOCCn2cc(C[C@H](NC(=O)[C@H](CCCCN)NC(=O)[C@H](CC(=O)O)NC(=O)[C@H](CC(=O)O)NC(=O)Cc3ccc(CNC(=O)NCCCC[C@H](NC(=O)N[C@@H](CCC(=O)O)C(=O)O)C(=O)O)cc3)C(=O)N[C@@H](CCCCNC(=O)CC[C@H](NC(=O)c3ccc(NCc4cnc5[nH]c(N)nc(=O)c5n4)cc3)C(=O)O)C(N)=O)nn2)cc1 [CB-60SK]
inhibitory effect on growth and expansion of tumor cell lines ([4]; 72 hours, CCK-8): has an inhibitory effect
IC50 compared between cell lines ([4]; LNCaP and HuH-7 versus T-47D, NCI-H460, CALU-3 and KB): significantly lower

CCc1c2c(nc3ccc(O)cc13)-c1cc3c(c(=O)n1C2)COC(=O)[C@@]3(CC)OC(=O)OCc1ccc(NC(=O)[C@H](CCCNC(N)=O)NC(=O)COCC(=O)NCCOCCOCCOCCOCCOCCn2cc(C[C@H](NC(=O)[C@H](CC(=O)O)NC(=O)[C@H](CC(=O)O)NC(=O)Cc3ccc(CNC(=O)NCCCC[C@H](NC(=O)N[C@@H](CCC(=O)O)C(=O)O)C(=O)O)cc3)C(=O)N[C@@H](CCCCNC(=O)CC[C@H](NC(=O)c3ccc(NCc4cnc5[nH]c(N)nc(=O)c5n4)cc3)C(=O)O)C(N)=O)nn2)cc1 [CB-60S]
inhibitory effect on growth and expansion of tumor cell lines ([5]; 72 hours, CCK-8): has an inhibitory effect
IC50 compared between cell lines ([5]; LNCaP and HuH-7 versus NCI-H460, KB, T-47D and CALU-3): significantly lower
